Source: publication PMC10604213, “Purification and Characterization of Polyphenol Oxidase in the Fruits of Opuntia ficus-indica” (Biology, 2023)

How the values were obtained:
[1] = tested on: T1, polyphenol oxidase (PPO) from the fruits of Opuntia ficus-indica; assay: absorbance at […] nm, Lineweaver-Burk; assay type: biochemical; settings: pH 9.0, 20 °C, 0.1 M Tris-base buffer
T1 construct: native, from fruit flesh; few SDS-PAGE bands, two prominent: slightly below 35 kDa and slightly above 45 kDa

[2] = tested on: T1, polyphenol oxidase (PPO) from the fruits of Opuntia ficus-indica; assay: absorbance at […] nm, Lineweaver-Burk; assay type: biochemical; settings: 0.1 M phosphate buffer

## Oc1cccc(O)c1O [pyrogallol]
[1]
  Km: 16.7 mM

## Oc1ccccc1O [catechol]
[2]; pH 7.5, 20 °C
  Km: 6.33 mM

## Cc1ccc(O)c(O)c1 [4-methyl catechol]
[2]; pH 7.5, 30 °C
  Km: 5.38 mM
